Measurements taken from US20240376108A1, “SALT AND CRYSTAL FORM OF PYRAZOLE-CONTAINING POLYCYCLIC DERIVATIVE, AND PREPARATION METHOD THEREFOR AND USE THEREOF” (Shanghai Hansoh Biomedical Co., Ltd., priority 2021, published 2024).
Values after ≈ are worked out from the molar mass of the structure shown. Each block holds one compound with its values, some of them ahead of it.

How the values were obtained:
Format in all cases: physicochemical
[1] = Hygroscopicity experiment (DVS); settings: 25° C.
Description: 7.1 Hygroscopicity experiment of crystal forms of different salts of compound 2-(2-cyano-5-oxo-8-(trifluoromethyl)pyrazolo[1,5-a]pyrido[3,2-e]pyrimidin-4(5H)-yl)-N-(5-fluoropyridin-2-yl)acetamide
7.1.1 Experimental objective: To investigate the hygroscopicity of crystal forms of different salts of compound 2-(2-cyano-5-oxo-8-(trifluoromethyl)pyrazolo[1,5-a]pyrido[3,2-e]pyrimidin-4(5H)-yl)-N-(5-fluoropyridin-2-yl)acetamide at different relative humidity, so as to provide a basis for storage.
7.1.2 Experimental protocol: Crystal forms of different salts of the compound were placed in saturated water vapor with different relative humidity to achieve dynamic equilibrium between the compound and water vapor, and the percentage of hygroscopic weight gain of the compound after equilibrium was calculated.

[2] = Screening of the salt form and of the crystal form of the salt; settings: 40 to 50° C., stirred overnight
Method: 2.1 Screening of the salt form of the compound
2.1.1 Experimental objective: To screen the salt form of the compound.
Salt forming by solventing out or suspension: 10 mg of compound 2-(2-cyano-5-oxo-8-(trifluoromethyl)pyrazolo[1,5-a]pyrido[3,2-e]pyrimidin-4(5H)-yl)-N-(5-fluoropyridin-2-yl)acetamide was weighed, to which 200 μL to 400 μL of solvent was added. The solution was stirred at 40 to 50° C., to which different acids were added respectively. The solution was stirred overnight, cooled to room temperature, filtered, and dried to obtain the salt of the compound.
3.1 Study on the crystal form of the salt of 2-(2-cyano-5-oxo-8-(trifluoromethyl)pyrazolo[1,5-a]pyrido[3,2-e]pyrimidin-4(5H)-yl)-N-(5-fluoropyridin-2-yl)acetamide
3.1.1 Experimental objective: To screen the salt of compound 2-(2-cyano-5-oxo-8-(trifluoromethyl)pyrazolo[1,5-a]pyrido[3,2-e]pyrimidin-4(5H)-yl)-N-(5-fluoropyridin-2-yl)acetamide that can form a crystal form.
2) Operating procedures: Salt forming by solventing out or suspension: 10 mg of the compound was weighed, to which 200 μL to 400 μL of solvent was added. The solution was stirred at 40 to 50° C., to which different acids were added respectively. The solution was stirred overnight, cooled to room temperature, filtered, and dried to obtain the salt of the compound.

[3] = Solubility experiment in different media; settings: room temperature, 24 hours
Method: The vials were placed on a spin mixer overnight at room temperature. After 24 hours, the sample solution was filtered through a 0.45 μm mixed aqueous fiber membrane. The content of the compound in the filtrate was determined by HPLC. [table]

[4] = Cycle 1, target relative humidity 0.0%
[5] = Cycle 1, target relative humidity 10.0%
[6] = Cycle 1, target relative humidity 20.0%
[7] = Cycle 1, target relative humidity 30.0%
[8] = Cycle 1, target relative humidity 40.0%
[9] = Cycle 1, target relative humidity 50.0%
[10] = Cycle 1, target relative humidity 60.0%
[11] = Cycle 1, target relative humidity 70.0%
[12] = Cycle 1, target relative humidity 80.0%
[13] = Cycle 1, target relative humidity 90.0%
[14] = Cycle 1, target relative humidity 95.0%
[15] = Cycle 2, target relative humidity 0.0%
[16] = Cycle 2, target relative humidity 10.0%
[17] = Cycle 2, target relative humidity 20.0%
[18] = Cycle 2, target relative humidity 30.0%
[19] = Cycle 2, target relative humidity 40.0%
[20] = Cycle 2, target relative humidity 50.0%
[21] = Cycle 2, target relative humidity 60.0%
[22] = Cycle 2, target relative humidity 70.0%
[23] = Cycle 2, target relative humidity 80.0%
[24] = Cycle 2, target relative humidity 90.0%
[25] = Cycle 2, target relative humidity 95.0%
[26] = solvent Dichloromethane (400 μL)
[27] = solvent Tetrahydrofuran (200 μL)

SMILES: Cl.N#Cc1cc2n(CC(=O)Nc3ccc(F)cn3)c(=O)c3ccc(C(F)(F)F)nc3n2n1 [Hydrochloride (crystal form A), 2-(2-cyano-5-oxo-8-(trifluoromethyl)pyrazolo[1,5-a]pyrido[3,2-e]pyrimidin-4(5H)-yl)-N-(5-fluoropyridin-2-yl)acetamide hydrochloride]
- % percentage of mass change, Desorption [1, 4]: −0.041%
- % percentage of mass change, Sorption [1, 4]: 0.000%
- % percentage of mass change, Desorption [1, 5]: 0.130%
- % percentage of mass change, Sorption [1, 5]: 0.131%
- % percentage of mass change, Desorption [1, 6]: 0.313%
- % percentage of mass change, Sorption [1, 6]: 0.275%
- % percentage of mass change, Desorption [1, 7]: 7.258%
- % percentage of mass change, Sorption [1, 7]: 4.325%
- % percentage of mass change, Desorption [1, 8]: 7.532%
- % percentage of mass change, Sorption [1, 8]: 7.346%
- % percentage of mass change, Desorption [1, 9]: 7.722%
- % percentage of mass change, Sorption [1, 9]: 7.466%
- % percentage of mass change, Desorption [1, 10]: 7.825%
- % percentage of mass change, Sorption [1, 10]: 7.581%
- % percentage of mass change, Desorption [1, 11]: 7.898%
- % percentage of mass change, Sorption [1, 11]: 7.709%
- % percentage of mass change, Desorption [1, 12]: 7.968%
- % percentage of mass change, Sorption [1, 12]: 7.840%
- % percentage of mass change, Desorption [1, 13]: 8.071%
- % percentage of mass change, Sorption [1, 13]: 8.018%
- % percentage of mass change, Desorption [1, 14]: 8.141%
- % percentage of mass change, Sorption [1, 14]: 8.141%
- % percentage of mass change, Desorption [1, 15]: −0.062%
- % percentage of mass change, Sorption [1, 15]: −0.041%
- % percentage of mass change, Desorption [1, 16]: 0.098%
- % percentage of mass change, Sorption [1, 16]: 0.095%
- % percentage of mass change, Desorption [1, 17]: 0.273%
- % percentage of mass change, Sorption [1, 17]: 0.236%
- % percentage of mass change, Desorption [1, 18]: 7.191%
- % percentage of mass change, Sorption [1, 18]: 5.345%
- % percentage of mass change, Desorption [1, 19]: 7.462%
- % percentage of mass change, Sorption [1, 19]: 7.269%
- % percentage of mass change, Desorption [1, 20]: 7.649%
- % percentage of mass change, Sorption [1, 20]: 7.383%
- % percentage of mass change, Desorption [1, 21]: 7.738%
- % percentage of mass change, Sorption [1, 21]: 7.492%
- % percentage of mass change, Desorption [1, 22]: 7.806%
- % percentage of mass change, Sorption [1, 22]: 7.610%
- % percentage of mass change, Desorption [1, 23]: 7.872%
- % percentage of mass change, Sorption [1, 23]: 7.745%
- % percentage of mass change, Desorption [1, 24]: 7.972%
- % percentage of mass change, Sorption [1, 24]: 7.925%
- % percentage of mass change, Desorption [1, 25]: 8.047%
- % percentage of mass change, Sorption [1, 25]: 8.047%

SMILES: Cl [Hydrochloric acid]
- Results (salt forming with acid, 1M in EtOH) ([2]; solvent 2-Butanone (250 μL)): Crystal form
- Results (salt forming with acid, 1M in EtOH) ([2]; solvent Acetone (400 μL)): Crystal form
- Results (salt forming with acid, 1M in EtOH) [2, 26]: Crystal form
- Results (salt forming with acid, 1M in EtOH) ([2]; solvent Methanol (400 μL)): Crystal form
- Results (salt forming with acid, 1M in EtOH) [2, 27]: Crystal form

- Results (salt forming with acid, 1M in EtOH) ([2]; solvent 2-Butanone (250 μL)): Crystal form
- Results (salt forming with acid, 1M in EtOH) ([2]; solvent Acetone (400 μL)): Crystal form
- Results (salt forming with acid, 1M in EtOH) [2, 26]: Crystal form
- Results (salt forming with acid, 1M in EtOH) ([2]; solvent Methanol (400 μL)): Crystal form
- Results (salt forming with acid, 1M in EtOH) [2, 27]: Crystal form
SMILES: CS(=O)(=O)O [Methanesulfonic acid]

SMILES: Br [Hydrobromic acid]
- Results (salt forming with acid, 1M in EtOH) ([2]; solvent 2-Butanone (250 μL)): Crystal form
- Results (salt forming with acid, 1M in EtOH) ([2]; solvent Acetone (400 μL)): Crystal form
- Results (salt forming with acid, 1M in EtOH) [2, 26]: Crystal form
- Results (salt forming with acid, 1M in EtOH) ([2]; solvent Methanol (400 μL)): Crystal form
- Results (salt forming with acid, 1M in EtOH) [2, 27]: Crystal form

SMILES: O=S(=O)(O)O [Sulfuric acid]
- Results (salt forming with acid, 1M in EtOH) ([2]; solvent 2-Butanone (250 μL)): Crystal form
- Results (salt forming with acid, 1M in EtOH) ([2]; solvent Acetone (400 μL)): Crystal form
- Results (salt forming with acid, 1M in EtOH) [2, 26]: Crystal form
- Results (salt forming with acid, 1M in EtOH) ([2]; solvent Methanol (400 μL)): Crystal form
- Results (salt forming with acid, 1M in EtOH) [2, 27]: Crystal form

SMILES: N#Cc1cc2n(CC(=O)Nc3ccc(F)cn3)c(=O)c3ccc(C(F)(F)F)nc3n2n1 [crystal form II of the free base, 2-(2-cyano-5-oxo-8-(trifluoromethyl)pyrazolo[1,5-a]pyrido[3,2-e]pyrimidin-4(5H)-yl)-N-(5-fluoropyridin-2-yl)acetamide free base]
- Solubility ([3]; FaSSGF): 0.7 µg/mL (≈ 1.62 µM)
- Solubility ([3]; FaSSIF): 1.1 µg/mL (≈ 2.55 µM)
- Solubility ([3]; FeSSIF): 2.5 µg/mL (≈ 5.8 µM)
- Solubility ([3]; H2O): 0.6 µg/mL (≈ 1.39 µM)
- Solubility ([3]; USP Buffer pH 1): 0.6 µg/mL (≈ 1.39 µM)
- Solubility ([3]; USP Buffer pH 2): 0.6 µg/mL (≈ 1.39 µM)
- Solubility ([3]; USP Buffer pH 3): 1.1 µg/mL (≈ 2.55 µM)
- Solubility ([3]; USP Buffer pH 4): 1 µg/mL (≈ 2.32 µM)
- Solubility ([3]; USP Buffer pH 5): 0.8 µg/mL (≈ 1.85 µM)
- Solubility ([3]; USP Buffer pH 6): 0.6 µg/mL (≈ 1.39 µM)
- Solubility ([3]; USP Buffer pH 7): 0.5 µg/mL (≈ 1.16 µM)
- Solubility ([3]; USP Buffer pH 8): 0.5 µg/mL (≈ 1.16 µM)

- Results (salt forming with acid, 1M in EtOH) ([2]; solvent 2-Butanone (250 μL)): Crystal form
- Results (salt forming with acid, 1M in EtOH) ([2]; solvent Acetone (400 μL)): Crystal form
- Results (salt forming with acid, 1M in EtOH) [2, 26]: Crystal form
- Results (salt forming with acid, 1M in EtOH) ([2]; solvent Methanol (400 μL)): Crystal form
- Results (salt forming with acid, 1M in EtOH) [2, 27]: Crystal form
SMILES: CCS(=O)(=O)O [Ethanesulfonic acid]
